Results: patent US6238689A, “Intestinal absorption of nicotine to treat nicotine responsive conditions” (Mayo Foundation for Medical Education and Research, priority 1998, dated 2001)
Read-outs that look alike come from different tables or passages of the source.

Tests used:
[1] = statement without test; cited from earlier work
[2] = Pharmacokinetics of nicotine after IV, oral and enema administration (Example 4)
Method: Intravenous nicotine was prepared using a nicotine base, supplied as the tartrate salt (Fisher Scientific/Eastman Kodak Company, Rochester, N.Y.). Solutions for injection were made up by combining 1.5 mg nicotine base (4.44 mg tartrate salt) in 100 ml of 0.9% sterile normal saline to form a 15 mcg/mL solution. The intravenous solution was filtered through a 0.22 micron filter into a sterile container and under sterile conditions. The solution was then cultured for organisms, assayed for endotoxin, and chemically analyzed prior to infusion to assure stable nicotine concentration. These samples were then be stored in sealed vials until the time of administration.
The oral preparation was formed by dissolving 45 micrograms nicotine base/kg body weight (133.3 micrograms tartrate salt/kg body weight) in 30 ml purified water.
The sorbitol was added to make the vehicle isoosmolar and the carboxymethylcellulose was used as a suspending agent.
Thirty paid human volunteers were admitted to the pharmacokinetic study after giving informed consent to a protocol approved by the institutional review board at the Mayo Clinic, Rochester, Minn. The subjects ranged in age from 21-56 and their body weights ranged from 45 to 153 Kg. All subjects were non-smokers and were healthy based on their histories, and physical examination. Subjects agreed to practice birth control during the study period. Complete blood count, chemistry group, urinalysis and pregnancy test (women only) were obtained. Subjects were excluded if they had cardiovascular disease, peripheral vascular disease, hypertension, were nursing mothers, had laboratory evidence of pregnancy, or had hepatic or renal dysfunction.
Each subject underwent 2 investigations (IV and non-IV) of 8 hours duration at least 1 week apart. During the IV visit, subjects were given a 15-30 minute infusion of the IV nicotine solution (15 mcg/Kg dose). […] On each study day, venous blood samples were drawn from an IV catheter into standard chemistry vacutainer tubes. Samples were obtained before nicotine administration and at the following time points (time=0 was defined as the point at which the nicotine infusion was started or the non-IV dose was administered): 5, 10, 15, 30, 60, 90 minutes, and 2, 3, 4, 5, 6, and 8 hours. Whole blood samples were centrifuged and plasma samples were then stored at -20 degrees Celsius until analysis. Plasma concentrations of nicotine were determined by gas chromatography/mass spectrometry as described by Baskin et al. (Clin. Chem., 31:76-80 (1991)).
For this study, the maximum plasma nicotine concentration (Cmax) and the time to reach Cmax (Tmax) were defined as the highest measured plasma concentrations and the time of the sample, respectively. The following pharmacokinetics parameters were calculated using standard equations (Gibaldi (ed.) Pharmcokinetics 2nd ed, Marcel Dekker Inc., New York 409-17 (1982)): area under the plasma nicotine concentration versus time curve (AUC), bioavailability (F), blood elimination half-life (T1/2), volume of distribution (Vdss), and blood nicotine clearance (Clb).
The computed bioavailability for each subject was used in an analysis of covariance to compare the five groups. Within subject (IV versus non-IV) variation was evaluated for each group of 6 subjects using a paired-T test. In addition, data was reviewed for gender variation.

[3] = Pharmacokinetics of nicotine tartrate after IV and Eudragit coated delayed release oral (DRO) capsules (Example 5)
Method: Delayed-release Eudragit™ coated oral nicotine capsules were prepared by Tillotts Pharma AG, Ziefen, Switzerland and consisted of either 3 mg or 6 mg of nicotine (8.887 mg or 17.774 mg nicotine tartrate base salt, respectively). The nicotine salt was suspended in an excipient (a saturated polyglycolized glyceride; Gelucire™ 44/14, (supplied by Gattefosse France) (190 mg or 380 mg respectively) and filled into hard gelatine capsules (size 1). The capsules were then coated with Eudragit™ L30D. Eudragit™ L30D is a polymer which dissolves at about pH 6.8 in the ileum. The size of the capsule and the thickness of the Eudragit coating are similar to those used to deliver Asacol™ (Eudragit coated mesalamine) to the terminal ileum (Schroeder et al., NEJM, 317:1625-9 (1987)).
Delayed-release Eudragit coated oral nicotine/carbomer capsules were prepared by Tillotts Pharma. Nicotine/carbomer powder (1:50--nicotine carbomer) was coated with Eudragit™ L, S or LS. The coated powder was then formed into spherules, coated with Eudragit S and filled into hard gelatine capsules (size 1). The capsules were then coated with Eudragit™ L30D. In one example, the capsules contained 150 mg nicotine-carbomer complex, equivalent to 3 mg nicotine base.
The aim of this study was to determine nicotine tartrate pharmacokinetics after administration by: IV, and 3 mg and 6 mg Eudragit S coated delay release oral (DRO) capsules.
Each subject had 2 studies [DRO and 15 μg/kg (mean 1 mg) IV] separated by >1 week with the order (IV vs DRO first) randomly assigned. After nicotine administration, blood was obtained for 12 hours and serum nicotine was determined by gas chromatography/mass spectrometry. Plasma cotinine concentrations were determined HPLC in 2 subjects (both 6 mg) over 72 hours. Pharmacokinetic parameters determined were: maximum concentration (Cmax); time to Cmax (Tmax); area under the curve (AUC); bioavailability (F); volume of distribution (Vdss); clearance (CL); and half-life (T1/2).
Delayed-release Eudragit coated oral nicotine capsules were prepared in accordance with Example 3, Part A.
Delayed-release Eudragit coated oral nicotine/Carbopol capsules were prepared in accordance with Example 3, Part B.

[4] = Side effects by questionnaire versus plasma nicotine concentration (Example 4); type: in vivo, human (healthy non-smoking volunteers)
Method: However, the threshold above which symptoms appeared varied from individual to individual with the nicotine concentration at which side effects first appeared ranging from 2.4 ng/mL to 9.9 ng/mL (although some subjects had nicotine concentrations of >11 ng/mL without symptoms).

[5] = Side effects after nicotine/Carbopol enema in healthy volunteers and patients with active UC (Example 6); type: in vivo, human
Method: Eight normal healthy volunteers and 8 patients with active UC were enrolled in this open label, single dose study.
The nicotine content of sample enemas was first confirmed by diluting a small volume of the contents in dilute hydrochloric acid to produce an approximate concentration of 30 ng/ml, which could then be accurately measured by our assay.
Side-effect experienced by the subjects were recorded as absent, mild, moderate or severe. Subjects were asked to report the time, nature and severity of any symptoms, at the commencement and each hour through the study, and were questioned particularly about nausea, vomiting, light-headedness, tremor, palpitations and headache. Blood pressure and pulse rate were also recorded each hour and when any symptoms occurred.

[6] = Side effects of nicotine delivered to the intestine versus gum and patch; type: in vivo, human; details: absorbed through the intestinal mucosa; inventors' belief
[7] = cited from earlier work
[8] = oral, 45 micrograms nicotine base/kg, previous study (Benowitz et al.); cited from earlier work
[9] = tested on: cutaneous inflammatory response; details: transdermal delivery system; cited from earlier work
[10] = human, in vivo; cited from earlier work

For `CN1C(=O)CC[C@H]1c1cccnc1` [cotinine], the “activity relative to nicotine” value [1] is given as “less active metabolite than nicotine”.

`CN1CCCC1c1cccnc1` (stereo not shown) [nicotine] showed a Tmax ([2]; human, plasma, iv, […]) of 18 ± 6 min, an AUC ([2]; human, plasma, iv, […], IV 15 mcg/kg over 15-30 min, n = 32, mean ± SD) of 0.012 ± 0.005 µg·h/mL and a Tmax ([2]; human, plasma, po, […]) of 66 ± 6 min. For the same compound, the bioavailability ([2]; human, plasma, po, […]) was 19%, the AUC ([2]; human, plasma, po, […], 45 mcg nicotine base/kg, n=6, analyzed on natural log scale) was 0.009 ± 0.005 µg·h/mL and the “subjects with no detectable plasma levels” value ([2]; oral, 45 mcg/kg) was 2 subjects. The “time at which nicotine was first detected in plasma” value ([2]; oral, 45 mcg/kg, when detectable) was 30 min, the “colonic absorption, dependence on patient position” value ([2]; pilot study, two additional subjects, enema) was “higher plasma levels detected when subjects were allowed into a sitting position immediately after administration” and the first pass metabolism ([3]; 6 mg DRO versus IV) was “significant first pass metabolism”. For the same compound, the systemic bioavailability ([3]; DRO route to the ileocolon) was “reduced systemic bioavailability of nicotine”, the F ([3]; IV 15 μg/kg (mean 1 mg), n=20) was 100 ± 0% and the Tmax ([3]; human, in vivo, iv, […]) was 24 ± 6 min. It also gave a Vd ([3]; human, in vivo, iv, […]) of 2 ± 1 L/kg, a clearance ([3]; human, in vivo, iv, […]) of 1 L/h/kg and a half-life ([3]; human, in vivo, iv, […]) of 60 ± 60 min. The “nicotine concentration without symptoms (some subjects)” value ([4]; plasma) was greater than 11 ng/mL, the “side effects, correlation with plasma nicotine concentrations” value ([4]; questionnaire every 30 minutes) was “closely correlated with plasma nicotine concentrations” and the side effects observed ([4]; variable frequency) was “nausea lightheadedness, and diaphoresis”. For the same compound, the “rise in serum nicotine” value ([5]; administration to the colon) was “only modest rises in serum nicotine occur”, the tolerability ([5]; human, in vivo) was “side effects were few and the preparation well tolerated” and the “nicotine's stability” value ([5]; phosphate buffer added, final pH of 5.5) was “increasing nicotine's stability”. The “bioavailability, cause” value [6] was “low bioavailability of nicotine absorbed through the intestinal mucosa appears to be largely due to its conversion to the major metabolite cotinine on first pass metabolism in the liver”, the “effect on cardiovascular system” value ([7]; in vivo) was “increased heart rate and blood pressure resulting in greater myocardial work and oxygen requirement and coronary vasocontriction” and the “effect on platelets and blood lipids” value ([7]; purported) was “activate platelets and to adversely affect blood lipids”. The tolerability [8] was “well-tolerated”, the “cutaneous inflammatory response to sodium lauryl sulphate and UVB radiation, and reactive hyperaemia” value [9] was “suppress the cutaneous inflammatory response to sodium lauryl sulphate (irritant) and UVB radiation, as well as reactive hyperaemia following arterial occlusion” and the “response of Alzheimer's and Parkinson's disease patients” value [10] was “beneficial response”.
